The results in this text go back to article PMC5897267 (EJNMMI Research, 2018).

One series relates to LNCaP-tumor-xenografts. Nature of the series: Biodistribution in LNCaP-tumor-bearing SCID mice. Type of series: in vivo. As to conditions: 1 h p.i., mean ± SD, n = 4. How it is done:
To induce LNCaP tumor growth, male CB-17 SCID mice (6–8 weeks, Charles River Laboratories, Sulzfeld, Germany) were inoculated subcutaneously onto the right shoulder with LNCaP cells (approximately 1 × 10^7 cells/200 μL DMEM/Nutrition Mix F-12 with Glutamax-I (1:1) medium and Matrigel (BD Biosciences, Germany) (1:1)). After 3–5 weeks, tumor size reached 4–8 mm in diameter, and the animals were used for in vivo studies.
About 0.8–1 MBq of the ^18F-labeled tracer were injected into the tail vein of the mice (n = 8) under isoflurane anesthesia. Animals were sacrificed at 1 and 2 h p.i.; the organs of interest were dissected, and the activity in the weighed tissues samples was quantified using a γ-counter.
The high plasma protein binding and therefore delayed blood pool clearance of ^18F-PSMA-1007 leads to low tumor-to-blood and tumor-to-spleen ratios, especially 2 h p.i. (Fig. 5; Additional file 1: Figure S5).
Data are given in % IA/g are means ± SD (n = 4 animals per group and time point)

The target in the next series is T1, PSMA (Homo sapiens, UniProt Q04609).
T1 construct: host or cells: LNCaP cells
T1 sequence (Q04609 whole entry): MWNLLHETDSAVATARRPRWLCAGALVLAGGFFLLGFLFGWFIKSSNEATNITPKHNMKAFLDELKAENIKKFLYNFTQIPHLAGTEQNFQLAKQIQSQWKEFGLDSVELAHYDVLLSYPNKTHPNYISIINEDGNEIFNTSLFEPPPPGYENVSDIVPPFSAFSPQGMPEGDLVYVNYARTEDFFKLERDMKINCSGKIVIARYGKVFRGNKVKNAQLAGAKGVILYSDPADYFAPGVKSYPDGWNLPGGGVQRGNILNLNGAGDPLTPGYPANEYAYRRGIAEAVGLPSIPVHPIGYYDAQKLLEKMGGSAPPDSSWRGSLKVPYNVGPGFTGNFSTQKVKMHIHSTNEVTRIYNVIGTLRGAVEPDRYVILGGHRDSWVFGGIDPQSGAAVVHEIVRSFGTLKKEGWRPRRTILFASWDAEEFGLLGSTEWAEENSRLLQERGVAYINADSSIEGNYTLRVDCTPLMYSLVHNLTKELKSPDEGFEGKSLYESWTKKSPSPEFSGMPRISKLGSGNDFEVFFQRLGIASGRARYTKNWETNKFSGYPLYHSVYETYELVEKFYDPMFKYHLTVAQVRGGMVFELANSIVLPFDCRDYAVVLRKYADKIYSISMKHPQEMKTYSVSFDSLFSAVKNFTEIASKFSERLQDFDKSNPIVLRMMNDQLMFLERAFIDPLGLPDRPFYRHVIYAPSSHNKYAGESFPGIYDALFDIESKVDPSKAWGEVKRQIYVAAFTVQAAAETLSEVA
Nature of the series: Competitive binding assay (IC50) on LNCaP cells with ([125I]I-BA)KuE as radioligand. The following applies: cold reference ligands, ([125I]I-BA)KuE 0.2 nM, 1 h, 4°C, mean ± SD, n = 3, read-out: PSMA affinity (IC50).

In series [1] the test system is PSMA-expressing LNCaP cells. Nature of the series: Internalization of the 18F-labeled ligands, normalized to ([125I]I-BA)KuE. In kind it is cell-based, human. The following applies: for Specific Internalization (1h; % of reference): LNCaP cells, 37°C, corrected for non-specific internalization (100 μM PMPA), reference ([125I]I-BA)KuE, mean ± SD, n = 3; for fold higher internalization rate than the reference ligands: versus 18F-DCFPyl and 18F-PSMA-1007, PSMA-expressing cells. As to the method:
PSMA overexpressing LNCaP cells (CLS: 300265) were cultured in DMEM/Nutrition Mix F-12 with Glutamax-I (1:1) (Invitrogen, Life Technologies, Darmstadt, Germany) supplemented with 10% FCS and were maintained at 37 °C in a 5% CO2/humidified air atmosphere. For IC50 determination, approximately 150,000 cells/well were seeded on 24-well plates 1 day prior to the experiment. For internalization studies, 125,000 cells/well were seeded in PLL-coated 24-well plates. For cell counting, a Countesse automated cell counter (Invitrogen, Carlsbad, USA) was used.
PSMA affinity and internalization kinetics of the ^18F-labeled compounds were determined according to a previously published protocol. A detailed description is provided online in the supporting information.
Competitive binding experiments (IC50) were carried out using PSMA-expressing LNCaP cells and ([^125I]I-BA)KuE as standard radioligand. Internalization kinetics of the ^18F-labeled derivatives were also performed using PSMA-expressing LNCaP cells and ([^125I]I-BA)KuE (0.2 nM) as an internal reference. Data were corrected for non-specific internalization in the presence of 100 μM 2-phosphonomethyl pentanedioic acid (PMPA) and normalized to the specific internalization observed for the radioiodinated reference compound assayed in a parallel experiment. Data represent means ± SD (n = 3).
Internalization studies of the 18F-labeled EuE-based inhibitors, 18F-DCFPyl and 18F-PSMA-1007 were performed according to a previously published protocol. Briefly, after washing the cells with 0.5 mL DMEM-F12 (5% BSA), the cells were preconditioned for a minimum of 15 min with 200 µL DMEM-F12 (5% BSA) at 37°C. Then, 25 µL (per well) of either assay medium (total internalization) or of a 100 µM 2-PMPA solution (non-specific internalization) were added, followed by addition of 25 µL of assay medium containing the respective 18F-labeled PSMA inhibitor or ([125I]I-BA)KuE (0.2 nM). The internalization kinetics were determined by cell incubation at 37°C for 5, 15, 30, and 60 min, respectively. All experiments were carried out in triplicate for each time point (control and blocking).
Incubation was terminated by placing the plate on ice and by removal of the incubation medium. The cells were subsequently rinsed with 250 µL DMEM-F12 (5% BSA) and combined with the supernatant of the previous step (amount of free radioligand). To remove receptor surface-bound radioactivity, the cells were incubated with 250 µL of ice cold PMPA in PBS (10 µM) for 10 min. After removal of the supernatant, the cells were thoroughly rinsed with another 250 µL of ice-cold PBS and both fractions were combined (amount of receptor-bound radioactivity). By incubation of the cells with 250 µL 1N NaOH (5 min), the internalized activity was released, the suspension transferred to vials, and combined with 250 µL of 1N NaOH used for subsequent rinsing of the wells. Quantification of the amount of free, PMPA-releasable, and internalized activity was performed in a γ-counter. For analysis of the internalization, data for both the 18F-labeled compound of interest and for the reference ([125I]I-BA)KuE in the same experiment were first corrected by the amount of non-specific internalization (adding of 100 µM PMPA), respectively, and then each was normalized to the amount of internalized ligand in the absence of unlabeled competitor (100%). To eliminate the influence of cell count and cell viability on the absolute internalization values, data (60 min) are expressed as the ratio of the internalization of the compound of interest to the internalization (60 min) found for ([125I]I-BA)KuE in the same experiment (Fig 2, Fig S3). Data represent means ± SD (n=3).
18F-PSMA-1007 and reference ([125I]I-BA)KuE into LNCaP cells (37°C) (mean ± SD [n = 3]) *Specific internalization of the reference compound ([125I]I-BA)KuE assayed in a parallel experiment and used for data […]
The results of the metabolite analyses of the 18F-labeled EuE-based inhibitors, as well as of 18F-PSMA- […]

The subject of the next series is mCRPC patient. The series can be described thus: PET/MR imaging of a mCRPC patient (compassionate use). Type of series: in vivo, human. The following applies: PET/MR 62 min after injection of 158 MBq. How it is done: Based on the promising preclinical results obtained for EuE-k-^18F-FBOA (1) a mCRPC patient (PSA 392 ng/ml) was imaged under compassionate use. The agent was applied in compliance with The German Medicinal Products Act, Arzneimittelgesetz (AMG) §13 2b, and in accordance with the responsible regulatory body (Government of Oberbayern). The patient underwent PET/MR imaging 62 min after injection of 158 MBq of EuE-k-^18F-FBOA (Fig. 6).
Images show the typical biodistribution of PSMA ligands with minimal blood pool retention.

Series [2] concerns the target T2, human serum albumin (HSA) (Homo sapiens, UniProt P02768).
T2 construct: purchased Chiralpak (manufacturer not given)
Nature of the series: Plasma protein binding on Chiralpak HSA column. In kind it is in vitro ADME. As to the method:
Plasma protein binding of the tracers was determined using an analytical Chiralpak human serum albumin (HSA) column (50 × 3 mm, 5 μm) according to a previously published protocol with minor changes.

The conditions of series [3]: CD-1, mouse, in vivo, 1 h.
Description: (§14) Approximately 60–70 MBq of the ^18F-labeled inhibitors were injected into the tail vein of severe combined immunodeficiency (SCID) mice. The animals were sacrificed 1 h p.i., blood and urine were collected, and kidneys were dissected and after freezing with liquid nitrogen, homogenized with a ball mill and extracted with 1 mL PBS containing 200 nmol PMPA. After centrifugation (15,000g) and ultrafiltration, the extracts were analyzed by reversed phase high-performance liquid chromatography (RP-HPLC). Blood samples were centrifuged to separate the plasma from the blood cells. Additionally, plasma proteins were removed by precipitation with acetonitrile (10 min, on ice), subsequent centrifugation and ultrafiltration. The blood extracts and the urine samples were analyzed using RP-HPLC. For RP-HPLC, a Nucleosil 100 C18 (5 μm, 125 × 4.0) column and different HPLC-systems were used (EuE-based inhibitors: flow rate: 2 mL/min; Gradient: 0–30% B in 20 min; HPLC-System A (see Additional file 1); ^18F-PSMA-1007: flow rate: 1.5 mL/min; Gradient: 5–55% B in 10 min; HPLC-System B (see Additional file 1); solvent A: 0.1% trifluoroacetic acid (TFA) in water, solvent B: 0.1% TFA in MeCN).
Series [4] can be described thus: Metabolite analysis in mice, RP-HPLC of blood, urine and kidney extracts. The following applies: 1 h p.i.
Description: as §14

Where “and” joins values, the source holds several entries; their conditions need not be identical. Equal entries are not always repeated.

T2 sequence (P02768 25-609): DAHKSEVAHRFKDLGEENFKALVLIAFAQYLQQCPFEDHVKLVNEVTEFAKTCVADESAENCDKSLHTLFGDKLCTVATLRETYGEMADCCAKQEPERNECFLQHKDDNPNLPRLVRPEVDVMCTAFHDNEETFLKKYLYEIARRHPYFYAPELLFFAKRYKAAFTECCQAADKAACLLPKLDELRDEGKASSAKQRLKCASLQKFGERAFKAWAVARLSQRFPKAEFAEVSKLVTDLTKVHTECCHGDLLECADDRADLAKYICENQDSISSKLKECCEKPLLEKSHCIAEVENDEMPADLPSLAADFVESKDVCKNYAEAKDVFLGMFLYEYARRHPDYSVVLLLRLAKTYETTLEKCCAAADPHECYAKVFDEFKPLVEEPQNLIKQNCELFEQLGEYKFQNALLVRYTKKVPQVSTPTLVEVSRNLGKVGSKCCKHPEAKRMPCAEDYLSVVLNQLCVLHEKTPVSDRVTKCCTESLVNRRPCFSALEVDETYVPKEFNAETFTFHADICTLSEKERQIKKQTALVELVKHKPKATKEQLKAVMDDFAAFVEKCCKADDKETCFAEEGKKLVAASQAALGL

A word on the IC50: it is the concentration that gives 50% inhibition. The compound `O=C(O)CCC(NC(=O)NC(CCC(=O)NC(CCCCNC(=O)CON=Cc1ccc([18F])cc1)C(=O)O)C(=O)O)C(=O)O` (stereo not shown) [EuE-k-^18F-FBOA] gave a tumor accumulation in the series with LNCaP-tumor-xenografts of 12.7 ± 2.0 % IA/g. In addition, the half-inhibitory concentration (IC50) on PSMA worked out at 4.2 ± 0.4 nM. In addition, in series [1], the “Specific Internalization (1h; % of reference)” value is 165 ± 4 % of reference and the “fold higher internalization rate than the reference ligands” value turned out to be 1.4 fold. In the series on mCRPC patient, the “uptake in bone and lymph node metastases, mean SUVmax” value was 21.6 (range 15.4–28.2); the “uptake in bone and lymph node metastases, mean SUVmean” value was 14.7 (range 9.2–19); the “uptake in the kidneys (SUVmean)” value was determined as 14.0; the “uptake in the liver (SUVmean)” value turned out to be 6.4. In addition, in the series with mCRPC patient, the “uptake in the salivary glands (SUVmean)” value amounted to 5.8 and the “uptake in the spleen (SUVmean)” value is recorded as 6.1. In series [2], the “Human serum albumin binding (plasma protein binding)” value (“Human serum albumin binding” below) is recorded as 13.4%. Moreover, the “intact tracer in blood, urine and kidneys” value in series [3] is on record as 100%.
As for `O=C(O)CCC(NC(=O)NC(CCC(=O)NC(CCCCNC(=O)CCNC(=O)c1ccc([18F])nc1)C(=O)O)C(=O)O)C(=O)O` (stereo not drawn) [EuE-k-β-a-^18F-FPyl], in the series with LNCaP-tumor-xenografts, the tumor accumulation stood at 13.0 ± 1.0 % IA/g. Also, the IC50 on PSMA was 1.1 ± 0.2 nM. Moreover, in series [1], the “Specific Internalization (1h; % of reference)” value is 323 ± 2 % of reference and the “fold higher internalization rate than the reference ligands” value is 2.7 fold. For the same compound, the “enhanced internalization into LNCaP cells compared to EuE-k-18F-FBOA” value in series [1] (versus EuE-k-18F-FBOA) was “twofold”. Further, in series [2], the “Human serum albumin binding” value turned out to be 12.0%. In series [3], the “intact tracer in blood, urine and kidneys” value is reported as 100%.
Regarding `O=C(O)CCC(NC(=O)NC(CCCCNC(=O)c1ccc([18F])nc1)C(=O)O)C(=O)O` (stereo not shown) [^18F-DCFPyl, 2-(3-{1-Carboxy-5-[(6-[18F]fluoro-pyridine-3-carbonyl)-amino]-pentyl}-ureido)-pen tanedioic acid, reference compound], the tumor accumulation in the series with LNCaP-tumor-xenografts came to 7.3 ± 1.0 % IA/g. Further, in series [1], the “Specific Internalization (1h; % of reference)” value was 118 ± 4 % of reference. The “Human serum albumin binding” value in series [2] was determined as 14.3%.
Regarding `O=C(O)CC[C@H](NC(=O)N[C@@H](CCCCNC(=O)[C@H](Cc1ccc2ccccc2c1)NC(=O)c1ccc(CNC(=O)[C@H](CCC(=O)O)NC(=O)[C@H](CCC(=O)O)NC(=O)c2ccc(F)nc2)cc1)C(=O)O)C(=O)O` [^18F-PSMA-1007], the IC50 at PSMA amounted to 4.2 ± 0.5 nM.
The compound `O=C(O)CC[C@H](NC(=O)N[C@@H](CCCCNC(=O)[C@H](Cc1ccc2ccccc2c1)NC(=O)c1ccc(CNC(=O)[C@H](CCC(=O)O)NC(=O)[C@H](CCC(=O)O)NC(=O)c2ccc([18F])nc2)cc1)C(=O)O)C(=O)O` [^18F-PSMA-1007] displayed a tumor accumulation in the series on LNCaP-tumor-xenografts of 7.1 ± 1.5 % IA/g. The “more hydrophilic metabolite, share of total activity in the kidneys” value in series [4] (kidneys) was determined as 4%. Besides, the “more hydrophilic metabolite, share of total activity in the urine” value in series [4] (urine) is 2%. For the same compound, in series [1], the “Specific Internalization (1h; % of reference)” value was 118 ± 5 % of reference. Moreover, the “Human serum albumin binding” value in series [2] was 98% and 97.8%.
